{"source": "patent US20220146519A1", "about": "“INTEGRIN ALPHA V BETA 3 TARGETING PROBE FOR DIAGNOSING RETINOCHOROIDAL NEOVASCULAR DISEASES AND PREPARATION METHOD THEREFOR” (SEOUL NATIONAL UNIVERSITY HOSPITAL, priority 2019, published 2022)", "key": {"integrin αvβ3 [1]": {"system": "integrin αvβ3", "sequence (P43406 31-885 limits assumed)": "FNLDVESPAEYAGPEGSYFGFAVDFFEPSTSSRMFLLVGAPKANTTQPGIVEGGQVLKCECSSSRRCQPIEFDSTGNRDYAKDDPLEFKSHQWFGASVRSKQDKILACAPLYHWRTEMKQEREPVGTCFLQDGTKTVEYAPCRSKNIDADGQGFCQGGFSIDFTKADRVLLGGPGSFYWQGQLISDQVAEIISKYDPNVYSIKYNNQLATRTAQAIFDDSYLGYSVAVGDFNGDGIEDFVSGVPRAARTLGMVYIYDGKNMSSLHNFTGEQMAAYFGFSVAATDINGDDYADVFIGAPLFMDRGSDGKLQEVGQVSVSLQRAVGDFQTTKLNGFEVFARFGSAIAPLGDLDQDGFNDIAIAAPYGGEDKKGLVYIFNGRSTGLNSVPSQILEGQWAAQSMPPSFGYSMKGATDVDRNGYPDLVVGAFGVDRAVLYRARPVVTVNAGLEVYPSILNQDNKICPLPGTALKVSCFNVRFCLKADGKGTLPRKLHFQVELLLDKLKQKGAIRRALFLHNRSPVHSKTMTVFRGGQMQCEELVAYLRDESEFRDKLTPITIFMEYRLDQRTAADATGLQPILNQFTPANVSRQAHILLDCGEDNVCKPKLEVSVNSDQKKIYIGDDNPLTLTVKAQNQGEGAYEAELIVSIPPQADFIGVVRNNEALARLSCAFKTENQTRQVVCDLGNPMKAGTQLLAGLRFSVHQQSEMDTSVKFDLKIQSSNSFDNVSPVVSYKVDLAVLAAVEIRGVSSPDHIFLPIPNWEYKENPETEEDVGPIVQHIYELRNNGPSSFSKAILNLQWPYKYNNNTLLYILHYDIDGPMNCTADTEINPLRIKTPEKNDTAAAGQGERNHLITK", "sequence (P43406 887-1044 partner limits assumed)": "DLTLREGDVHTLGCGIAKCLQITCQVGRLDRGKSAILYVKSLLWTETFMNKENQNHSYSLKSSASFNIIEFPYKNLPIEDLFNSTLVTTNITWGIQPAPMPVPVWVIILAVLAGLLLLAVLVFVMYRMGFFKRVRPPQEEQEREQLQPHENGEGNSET", "sequence (O54890 26-787, further chain)": "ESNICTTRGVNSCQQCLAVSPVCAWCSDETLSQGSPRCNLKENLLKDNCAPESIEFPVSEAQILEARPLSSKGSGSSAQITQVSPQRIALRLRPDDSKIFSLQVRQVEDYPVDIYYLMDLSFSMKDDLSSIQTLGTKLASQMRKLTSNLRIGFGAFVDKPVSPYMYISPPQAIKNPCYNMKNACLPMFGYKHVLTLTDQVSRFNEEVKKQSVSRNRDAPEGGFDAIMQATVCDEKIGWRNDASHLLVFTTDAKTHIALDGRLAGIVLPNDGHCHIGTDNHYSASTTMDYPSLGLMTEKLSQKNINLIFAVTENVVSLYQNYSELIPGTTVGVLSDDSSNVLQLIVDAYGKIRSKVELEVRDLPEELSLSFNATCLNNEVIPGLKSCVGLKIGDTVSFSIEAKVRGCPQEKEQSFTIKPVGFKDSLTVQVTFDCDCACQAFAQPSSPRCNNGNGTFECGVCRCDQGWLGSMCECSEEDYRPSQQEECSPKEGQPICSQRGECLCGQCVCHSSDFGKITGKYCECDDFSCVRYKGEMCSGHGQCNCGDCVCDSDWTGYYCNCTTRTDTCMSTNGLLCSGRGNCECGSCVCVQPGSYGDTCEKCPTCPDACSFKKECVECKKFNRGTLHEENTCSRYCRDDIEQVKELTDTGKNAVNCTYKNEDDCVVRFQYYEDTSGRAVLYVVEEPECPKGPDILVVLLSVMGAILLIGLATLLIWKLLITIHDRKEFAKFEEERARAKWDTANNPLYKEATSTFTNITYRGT", "test": "Fluorescence staining of vessels in retinal and choroidal flatmounts using FITC-labeled RGD peptide", "parameters": "species or system mouse", "details": "for staining of choroidal neovascularization lesions (laser-treated areas): ex vivo choroidal flatmount, 7 days after laser-induced choroidal neovascularization, C57BL/6 mice", "protocol": "After intravenous anesthesia using a 1:1 mixture of 100 mg/mL ketamine and 20 mg/mL xylazine and pupillary dilatation using 5.0% phenylephrine and 0.8% tropicamide, C57BL/6 mice were placed on the Mayo stand (Coherent PC-920 Argon Ion Laser System; Coherent Medical Laser, Santa Clara, Calif.). Choroidal neovascularization was induced using 512-nm argon laser photocoagulation, with 100 urn of spot size and 100 mW of power for 0.1 s in the right eye. Five lesions of about 2-3 disc diameters were generated from the optic disc. The formation of bubbles upon laser delivery can be considered sufficient damage to induce rupture of Bruch's membrane and choroidal neovascularization. When subretinal hemorrhage occurred after the laser treatment, the mice were excluded from the experiment.\nTen eyes were prepared as choroidal flatmounts. For the flatmounts, mice were anesthetized at days 7 or 14 and eyes were enucleated and fixed with 4% paraformaldehyde for 30 min at 4° C. The anterior segment and retina were removed from the eyecup, and four radial incisions were made. The remaining retinal pigment epithelium (RPE)-choroid-sclera complex was flatmounted and coverslipped. Flatmounts were examined with a scanning laser confocal microscope (LSM710; Carl Zeiss, Oberkochen, Germany). […]\nFluorescence staining with FITC-D-[c(RGDfK)]^2 was performed as follows: • (1) the retinal and choroidal flatmounts were washed with PBS and incubated with FITC-D-[c(RGDfK)]2 for 30 minutes; • (2) the slides were washed with PBS several times, counterstained with 4′,6-diamidino-2-phenylindole (DAPI), and mounted with ProLong Gold anti-fade reagent (Life Technologies, Carlsbad, Calif., USA); • (3) and after staining, the flatmounts were mounted with the vitreous side up on glass slides and visualized on a confocal microscope (LSM710; Carl Zeiss, Oberkochen, Germany)."}, "integrin αvβ3 [2]": {"system": "integrin αvβ3", "test": "Specificity of FITC-D-[c(RGDfK)]2 staining evaluated with excess cRGD peptides", "assay_type": "binding, mouse", "details": "10 nM probe; 2-hour incubation with 200 nM (20-fold) cRGD before staining; choroidal flatmount", "protocol": "Additionally, the specificity of FITC-D-[c(RGDfK)]2 staining was evaluated by using an excess of cRGD peptides. For this experiment, one mouse with identical laser-induced choroidal neovascularization in both eyes was sacrificed. One eye of the mouse was stained with the staining method described above using 10 nM of FITCD-[c(RGDfK)]2. The other eye was stained with the staining method described above plus a 2-hour incubation with excess cRGD peptides (for example, 20-fold molar concentration of the FITC-conjugated cRGD dimer, i.e., 200 nM) prior to the fluorescence staining. In this staining, the present inventors used an integrin αvβ3 antibody to investigate if the staining with the integrin αvβ3 antibody co-localized with that of the FITC-conjugated cRGD dimer."}}, "note": "“Also recorded” adds a separate entry of the source.", "data": [{"substance": "FITC-D-[c(RGDfK)]2 [FITC-labeled cyclic RGD peptide]", "values": [{"measurement": "staining of choroidal neovascularization lesions (laser-treated areas)", "setting": "integrin αvβ3 [1]", "result": "intense immunofluorescence staining; also recorded: allowed the visualization of choroidal neovascularization at laser-treated areas"}, {"measurement": "staining of choroidal neovascularization lesions (laser-treated areas)", "setting": "integrin αvβ3 [1]; listed as FITC-labeled RGD peptide", "result": "laser-treated lesion stained with FITC-labeled RGD peptide corresponded to that stained with lectin"}, {"measurement": "staining of normal vessels in the retina", "setting": "integrin αvβ3 [1]; ex vivo untreated retina flatmount, lectin-positive normal vessels", "result": "barely stained"}, {"measurement": "fluorescence of probe after pre-incubation with excess cRGD", "setting": "integrin αvβ3 [2]", "result": "remarkably reduced"}]}]}
